Results reported in patent US20070248657A1, “Multi-compartment transdermal pain control device” (priority 2006, published 2007).
Read-outs that look alike come from different tables or passages of the source.

Assays:
[1] = human

SMILES | flux through human cadaver epidermis (clinical significance) (human, pH 8.6) | flux through human cadaver epidermis (clinical significance) (pH 5.6) | flux through human cadaver epidermis (clinical significance) (pH 7.3) | Cumulative Flux ([1]; 0 h) [μg/cm^2] | Cumulative Flux ([1]; 3 h) [μg/cm^2] | Cumulative Flux ([1]; 6 h) [μg/cm^2] | Cumulative Flux ([1]; 9 h) [μg/cm^2] | Cumulative Flux ([1]; 24 h) [μg/cm^2] | Cumulative Flux ([1]; 48 h) [μg/cm^2] | Cumulative Flux ([1]; 72 h) [μg/cm^2] | flux through human cadaver epidermis (clinical significance) (pH 8.6)
COc1ccc2c(c1)[C@]13CCCC[C@@H]1[C@H](C2)N(C)CC3 [Dextromethorphan, dextromethorphan] | higher than at a pH of 7.3 | clinically insignificant | remains clinically insignificant |  |  |  |  |  |  |  | 
O=C(c1ccccc1)c1ccc2n1CCC2C(=O)O (stereo not shown) [Ketorolac, ketorolac tromethamine] |  | clinically significant | decreased to a clinically insignificant level | 0 | 24 | 7 | 11 | 100 | 412 | 726 | remains clinically insignificant
